Results: ChEMBL document CHEMBL4393697, “Lipophilic efficient phenylthiazoles with potent undecaprenyl pyrophosphatase inhibitory activity” (Eur J Med Chem, 2019)
Converted amounts (≈) assume the structure as drawn. The source made the active and inactive calls. The calls are words filed in the database; no cut-off is given here.

test system: Staphylococcus aureus; assay: Antibacterial activity against Staphylococcus aureus NRS107 assessed as reduction in bacterial cell growth incubated for 18 to 20 hrs by broth microdilution method; type: functional; settings: not given

Row | Structure (SMILES) | MIC
1 | C/C(=N\NC(=N)N)c1sc(-c2ccc(C#Cc3ccc(N)cc3)cc2)nc1C | 4 µg/mL (≈ 10.3 µM)

test system: Staphylococcus aureus; assay: Antibacterial activity against methicillin resistant Staphylococcus aureus USA400 assessed as reduction in bacterial cell growth incubated for 18 to 20 hrs by broth microdilution method; type: functional; settings: not given

Row | Structure (SMILES) | MIC
2 | C/C(=N\NC(=N)N)c1sc(-c2ccc(C#Cc3ccc(N)cc3)cc2)nc1C | 4 µg/mL (≈ 10.3 µM)

test system: Staphylococcus aureus; assay: Antibacterial activity against methicillin-resistant Staphylococcus aureus USA300 assessed as reduction in bacterial cell growth incubated for 18 to 20 hrs by broth microdilution method; type: functional; settings: not given

Row | Structure (SMILES) | MIC
3 | C/C(=N\NC(=N)N)c1sc(-c2ccc(C#Cc3ccc(N)cc3)cc2)nc1C | 4 µg/mL (≈ 10.3 µM)

test system: Staphylococcus aureus; assay: Antibacterial activity against methicillin resistant Staphylococcus aureus NRS119 assessed as reduction in bacterial cell growth incubated for 18 to 20 hrs by broth microdilution method; type: functional; settings: not given

Row | Structure (SMILES) | MIC
4 | C/C(=N\NC(=N)N)c1sc(-c2ccc(C#Cc3ccc(N)cc3)cc2)nc1C | 8 µg/mL (≈ 20.6 µM)

test system: Staphylococcus aureus; assay: Antibacterial activity against vancomycin resistant Staphylococcus aureus VRS10 assessed as reduction in bacterial cell growth incubated for 18 to 20 hrs by broth microdilution method; type: functional; settings: not given

Row | Structure (SMILES) | MIC
5 | C/C(=N\NC(=N)N)c1sc(-c2ccc(C#Cc3ccc(N)cc3)cc2)nc1C | 16 µg/mL (≈ 41.2 µM)

test system: Staphylococcus aureus; assay: Antibacterial activity against Staphylococcus aureus ATCC 6538 assessed as reduction in bacterial cell growth incubated for 18 to 20 hrs by broth microdilution method; type: functional; settings: not given

Row | Structure (SMILES) | MIC
6 | C/C(=N\NC(=N)N)c1sc(-c2ccc(C#Cc3ccc(N)cc3)cc2)nc1C | 2 µg/mL (≈ 5.15 µM)

test system: Staphylococcus epidermidis; assay: Antibacterial activity against methicillin resistant Staphylococcus epidermidis NRS101 assessed as reduction in bacterial cell growth incubated for 18 to 20 hrs by broth microdilution method; type: functional; settings: not given

Row | Structure (SMILES) | MIC
7 | C/C(=N\NC(=N)N)c1sc(-c2ccc(C#Cc3ccc(N)cc3)cc2)nc1C | 2 µg/mL (≈ 5.15 µM)

test system: Staphylococcus aureus; assay: Antibacterial activity against vancomycin resistant Staphylococcus aureus VRS12 assessed as reduction in bacterial cell growth incubated for 18 to 20 hrs by broth microdilution method; type: functional; settings: not given

Row | Structure (SMILES) | MIC
8 | C/C(=N\NC(=N)N)c1sc(-c2ccc(C#Cc3ccc(N)cc3)cc2)nc1C | 16 µg/mL (≈ 41.2 µM)

test system: Staphylococcus aureus; assay: Antibacterial activity against vancomycin resistant Staphylococcus aureus VRS11a assessed as reduction in bacterial cell growth incubated for 18 to 20 hrs by broth microdilution method; type: functional; settings: not given

Row | Structure (SMILES) | MIC
9 | C/C(=N\NC(=N)N)c1sc(-c2ccc(C#Cc3ccc(N)cc3)cc2)nc1C | 16 µg/mL (≈ 41.2 µM)

test system: Staphylococcus aureus; assay: Antibacterial activity against intracellular methicillin resistant Staphylococcus aureus USA400 infected in mouse J774 cells assessed as log10 reduction of viable bacterial cells incubated for 24 hrs followed by re-plating on tryptic soy agar plates at 37 degC for 18 to 22 hrs by broth microdilution assay; type: functional; settings: not given

Row | Structure (SMILES) | Activity call
10 | C/C(=N\NC(=N)N)c1sc(-c2ccc(C#Cc3ccc(N)cc3)cc2)nc1C | inactive

test system: Enterococcus faecalis; assay: Antibacterial activity against vancomycin resistant Enterococcus faecalis ATCC 51299 assessed as reduction in bacterial cell growth incubated for 18 to 20 hrs by broth microdilution method; type: functional; settings: not given

Row | Structure (SMILES) | MIC
11 | C/C(=N\NC(=N)N)c1sc(-c2ccc(C#Cc3ccc(N)cc3)cc2)nc1C | > 64 µg/mL

test system: Enterococcus faecium; assay: Antibacterial activity against vancomycin resistant Enterococcus faecium ATCC 700221 assessed as reduction in bacterial cell growth incubated for 18 to 20 hrs by broth microdilution method; type: functional; settings: not given

Row | Structure (SMILES) | MIC
12 | C/C(=N\NC(=N)N)c1sc(-c2ccc(C#Cc3ccc(N)cc3)cc2)nc1C | 4 µg/mL (≈ 10.3 µM)

test system: Listeria monocytogenes; assay: Antibacterial activity against Listeria monocytogenes ATCC 19111 assessed as reduction in bacterial cell growth incubated for 18 to 20 hrs by broth microdilution method; type: functional; settings: not given

Row | Structure (SMILES) | MIC
13 | C/C(=N\NC(=N)N)c1sc(-c2ccc(C#Cc3ccc(N)cc3)cc2)nc1C | 32 µg/mL (≈ 82.4 µM)

test system: Streptococcus pneumoniae; assay: Antibacterial activity against Cephalosporin resistant Streptococcus pneumoniae ATCC 51916 assessed as reduction in bacterial cell growth incubated for 18 to 20 hrs by broth microdilution method; type: functional; settings: not given

Row | Structure (SMILES) | MIC
14 | C/C(=N\NC(=N)N)c1sc(-c2ccc(C#Cc3ccc(N)cc3)cc2)nc1C | 32 µg/mL (≈ 82.4 µM)

test system: Streptococcus pneumoniae; assay: Antibacterial activity against Methicillin resistant Streptococcus pneumoniae ATCC 700677 assessed as reduction in bacterial cell growth incubated for 18 to 20 hrs by broth microdilution method; type: functional; settings: not given

Row | Structure (SMILES) | MIC
15 | C/C(=N\NC(=N)N)c1sc(-c2ccc(C#Cc3ccc(N)cc3)cc2)nc1C | 16 µg/mL (≈ 41.2 µM)

test system: Staphylococcus aureus; assay: Bactericidal activity against Staphylococcus aureus ATCC 6538 assessed as reduction in bacterial cell growth incubated for 18 to 20 hrs followed by re-plating on tryptic soy agar plates at 37 degC for 18 hrs by broth microdilution assay; type: functional; settings: not given

Row | Structure (SMILES) | MBC
16 | C/C(=N\NC(=N)N)c1sc(-c2ccc(C#Cc3ccc(N)cc3)cc2)nc1C | 4 µg/mL (≈ 10.3 µM)

test system: Staphylococcus aureus; assay: Bactericidal activity against Staphylococcus aureus NRS107 assessed as reduction in bacterial cell growth incubated for 18 to 20 hrs followed by re-plating on tryptic soy agar plates at 37 degC for 18 hrs by broth microdilution assay; type: functional; settings: not given

Row | Structure (SMILES) | MBC
17 | C/C(=N\NC(=N)N)c1sc(-c2ccc(C#Cc3ccc(N)cc3)cc2)nc1C | 8 µg/mL (≈ 20.6 µM)

test system: Staphylococcus aureus; assay: Bactericidal activity against methicillin resistant Staphylococcus aureus NRS119 assessed as reduction in bacterial cell growth incubated for 18 to 20 hrs followed by re-plating on tryptic soy agar plates at 37 degC for 18 hrs by broth microdilution assay; type: functional; settings: not given

Row | Structure (SMILES) | MBC
18 | C/C(=N\NC(=N)N)c1sc(-c2ccc(C#Cc3ccc(N)cc3)cc2)nc1C | 16 µg/mL (≈ 41.2 µM)

test system: Staphylococcus aureus; assay: Bactericidal activity against methicillin-resistant Staphylococcus aureus USA300 assessed as reduction in bacterial cell growth incubated for 18 to 20 hrs followed by re-plating on tryptic soy agar plates at 37 degC for 18 hrs by broth microdilution assay; type: functional; settings: not given

Row | Structure (SMILES) | MBC
19 | C/C(=N\NC(=N)N)c1sc(-c2ccc(C#Cc3ccc(N)cc3)cc2)nc1C | 16 µg/mL (≈ 41.2 µM)

test system: Staphylococcus aureus; assay: Bactericidal activity against vancomycin resistant Staphylococcus aureus VRS10 assessed as reduction in bacterial cell growth incubated for 18 to 20 hrs followed by re-plating on tryptic soy agar plates at 37 degC for 18 hrs by broth microdilution assay; type: functional; settings: not given

Row | Structure (SMILES) | MBC
20 | C/C(=N\NC(=N)N)c1sc(-c2ccc(C#Cc3ccc(N)cc3)cc2)nc1C | 32 µg/mL (≈ 82.4 µM)

test system: Staphylococcus aureus; assay: Bactericidal activity against vancomycin resistant Staphylococcus aureus VRS11a assessed as reduction in bacterial cell growth incubated for 18 to 20 hrs followed by re-plating on tryptic soy agar plates at 37 degC for 18 hrs by broth microdilution assay; type: functional; settings: not given

Row | Structure (SMILES) | MBC
21 | C/C(=N\NC(=N)N)c1sc(-c2ccc(C#Cc3ccc(N)cc3)cc2)nc1C | 32 µg/mL (≈ 82.4 µM)

test system: Staphylococcus aureus; assay: Bactericidal activity against vancomycin resistant Staphylococcus aureus VRS12 assessed as reduction in bacterial cell growth incubated for 18 to 20 hrs followed by re-plating on tryptic soy agar plates at 37 degC for 18 hrs by broth microdilution assay; type: functional; settings: not given

Row | Structure (SMILES) | MBC
22 | C/C(=N\NC(=N)N)c1sc(-c2ccc(C#Cc3ccc(N)cc3)cc2)nc1C | 32 µg/mL (≈ 82.4 µM)

test system: Enterococcus faecalis; assay: Bactericidal activity against vancomycin resistant Enterococcus faecalis ATCC 51299 assessed as reduction in bacterial cell growth incubated for 18 to 20 hrs followed by re-plating on tryptic soy agar plates at 37 degC for 18 hrs by broth microdilution assay; type: functional; settings: not given

Row | Structure (SMILES) | MBC
23 | C/C(=N\NC(=N)N)c1sc(-c2ccc(C#Cc3ccc(N)cc3)cc2)nc1C | > 64 µg/mL

test system: Enterococcus faecium; assay: Bactericidal activity against vancomycin resistant Enterococcus faecium ATCC 700221 assessed as reduction in bacterial cell growth incubated for 18 to 20 hrs followed by re-plating on tryptic soy agar plates at 37 degC for 18 hrs by broth microdilution assay; type: functional; settings: not given

Row | Structure (SMILES) | MBC
24 | C/C(=N\NC(=N)N)c1sc(-c2ccc(C#Cc3ccc(N)cc3)cc2)nc1C | 16 µg/mL (≈ 41.2 µM)

test system: Listeria monocytogenes; assay: Bactericidal activity against Listeria monocytogenes ATCC 19111 assessed as reduction in bacterial cell growth incubated for 18 to 20 hrs followed by re-plating on tryptic soy agar plates at 37 degC for 18 hrs by broth microdilution assay; type: functional; settings: not given

Row | Structure (SMILES) | MBC
25 | C/C(=N\NC(=N)N)c1sc(-c2ccc(C#Cc3ccc(N)cc3)cc2)nc1C | > 64 µg/mL

test system: Streptococcus pneumoniae; assay: Bactericidal activity against Cephalosporin resistant Streptococcus pneumoniae ATCC 51916 assessed as reduction in bacterial cell growth incubated for 18 to 20 hrs followed by re-plating on tryptic soy agar plates at 37 degC for 18 hrs by broth microdilution assay; type: functional; settings: not given

Row | Structure (SMILES) | MBC
26 | C/C(=N\NC(=N)N)c1sc(-c2ccc(C#Cc3ccc(N)cc3)cc2)nc1C | 32 µg/mL (≈ 82.4 µM)

test system: Acinetobacter baumannii; assay: Antibacterial activity against Acinetobacter baumannii ATCC 19606 assessed as reduction in bacterial cell growth incubated for 18 to 20 hrs by broth microdilution method; type: functional; settings: not given

Row | Structure (SMILES) | MIC
27 | C/C(=N\NC(=N)N)c1sc(-c2ccc(C#Cc3ccc(N)cc3)cc2)nc1C | 64 µg/mL (≈ 165 µM)

test system: Escherichia coli; assay: Antibacterial activity against Escherichia coli BW25113 assessed as reduction in bacterial cell growth incubated for 18 to 20 hrs by broth microdilution method; type: functional; settings: not given

Row | Structure (SMILES) | MIC
28 | C/C(=N\NC(=N)N)c1sc(-c2ccc(C#Cc3ccc(N)cc3)cc2)nc1C | > 64 µg/mL

test system: Escherichia coli; assay: Antibacterial activity against Escherichia coli JW55031 harboring deltatolC mutant assessed as reduction in bacterial cell growth incubated for 18 to 20 hrs by broth microdilution method; type: functional; settings: not given

Row | Structure (SMILES) | MIC
29 | C/C(=N\NC(=N)N)c1sc(-c2ccc(C#Cc3ccc(N)cc3)cc2)nc1C | 16 µg/mL (≈ 41.2 µM)

test system: Pseudomonas aeruginosa; assay: Antibacterial activity against Pseudomonas aeruginosa ATCC 15442 assessed as reduction in bacterial cell growth incubated for 18 to 20 hrs by broth microdilution method; type: functional; settings: not given

Row | Structure (SMILES) | MIC
30 | C/C(=N\NC(=N)N)c1sc(-c2ccc(C#Cc3ccc(N)cc3)cc2)nc1C | > 64 µg/mL

test system: Acinetobacter baumannii; assay: Bactericidal activity against Acinetobacter baumannii ATCC 19606 assessed as reduction in bacterial cell growth incubated for 18 to 20 hrs followed by re-plating on tryptic soy agar plates at 37 degC for 18 hrs by broth microdilution assay; type: functional; settings: not given

Row | Structure (SMILES) | MBC
31 | C/C(=N\NC(=N)N)c1sc(-c2ccc(C#Cc3ccc(N)cc3)cc2)nc1C | > 64 µg/mL

test system: Escherichia coli; assay: BActericidal activity against Escherichia coli BW25113 assessed as reduction in bacterial cell growth incubated for 18 to 20 hrs followed by re-plating on tryptic soy agar plates at 37 degC for 18 hrs by broth microdilution assay; type: functional; settings: not given

Row | Structure (SMILES) | MBC
32 | C/C(=N\NC(=N)N)c1sc(-c2ccc(C#Cc3ccc(N)cc3)cc2)nc1C | > 64 µg/mL

test system: Pseudomonas aeruginosa; assay: Bactericidal activity against Pseudomonas aeruginosa ATCC 15442 assessed as reduction in bacterial cell growth incubated for 18 to 20 hrs followed by re-plating on tryptic soy agar plates at 37 degC for 18 hrs by broth microdilution assay; type: functional; settings: not given

Row | Structure (SMILES) | MBC
33 | C/C(=N\NC(=N)N)c1sc(-c2ccc(C#Cc3ccc(N)cc3)cc2)nc1C | > 64 µg/mL

test system: J774; assay: Cytotoxicity against mouse J774 assessed as reduction in cell viability at 16 ug/ml incubated for 24 hrs by MTS assay; type: cell-based; settings: j774, 24 h

Row | Structure (SMILES) | Activity
34 | C/C(=N\NC(=N)N)c1sc(-c2ccc(C#Cc3ccc(N)cc3)cc2)nc1C | Non-Toxic

test system: not listed separately; assay: Solubility of compound in PBS after 2 hrs by turbidity based absorbance analysis; type: physicochemical; settings: not given

Row | Structure (SMILES) | solubility kinetic at 2 h
35 | C/C(=N\NC(=N)N)c1sc(-c2ccc(C#Cc3ccc(N)cc3)cc2)nc1C | 105 µM (≈ 40.8 µg/mL)
